In PubChem BioAssay (NCI):
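Assay format: 96-well plates, 48-hour exposure. The concentration for 50% growth inhibition is given as GI50. At the TGI there is no net growth.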

Tests used:
Assay in all cases: NCI-60 cell line screen, 48 h
786-0 renal = tested on: 786-0 renal
A498 renal = tested on: A498 renal
A549 NSCLC = tested on: A549 NSCLC
ACHN renal = tested on: ACHN renal
BT-549 breast = tested on: BT-549 breast
CAKI-1 renal = tested on: CAKI-1 renal
CCRF-CEM leukemia = tested on: CCRF-CEM leukemia
COLO 205 colon = tested on: COLO 205 colon
DU-145 prostate = tested on: DU-145 prostate
EKVX NSCLC = tested on: EKVX NSCLC
HCC-2998 colon = tested on: HCC-2998 colon
HCT-116 colon = tested on: HCT-116 colon
HCT-15 colon = tested on: HCT-15 colon
HL-60(TB) leukemia = tested on: HL-60(TB) leukemia
HOP-62 NSCLC = tested on: HOP-62 NSCLC
HOP-92 NSCLC = tested on: HOP-92 NSCLC
HS 578T breast = tested on: HS 578T breast
HT29 colon = tested on: HT29 colon
IGROV1 ovarian = tested on: IGROV1 ovarian
K-562 leukemia = tested on: K-562 leukemia
KM12 colon = tested on: KM12 colon
LOX IMVI melanoma = tested on: LOX IMVI melanoma
M14 melanoma = tested on: M14 melanoma
MALME-3M melanoma = tested on: MALME-3M melanoma
MCF7 breast = tested on: MCF7 breast
MDA-MB-231 breast = tested on: MDA-MB-231 breast
MDA-MB-435 = tested on: MDA-MB-435
MDA-MB-468 breast = tested on: MDA-MB-468 breast
MOLT-4 leukemia = tested on: MOLT-4 leukemia
NCI-H226 lung = tested on: NCI-H226 lung

## CCOc1ccccc1[C@H]1C(C(=O)c2ccc(Cl)cc2)C2(N[C@@H]1c1ccccc1)C(=O)Nc1ccc(Br)cc12 (some centres undefined)
786-0 renal
  GI50: 5.76 µM
  TGI: 17.6 µM
A498 renal
  GI50: 4.45 µM
  TGI: 13.7 µM
A549 NSCLC
  GI50: 6.58 µM
  TGI: > 34.5 µM
ACHN renal
  GI50: 7.25 µM
  TGI: > 34.5 µM
BT-549 breast
  GI50: 5.3 µM
  TGI: 10.8 µM
CAKI-1 renal
  GI50: 2.92 µM
  TGI: > 34.5 µM
CCRF-CEM leukemia
  GI50: 22.8 µM
  TGI: > 34.5 µM
COLO 205 colon
  GI50: 5.35 µM
  TGI: 10.6 µM
DU-145 prostate
  GI50: 8.88 µM
  TGI: 32.2 µM
EKVX NSCLC
  GI50: 7.9 µM
  TGI: > 34.5 µM
HCC-2998 colon
  GI50: 4.88 µM
  TGI: 13 µM
HCT-116 colon
  GI50: 4.76 µM
  TGI: 11 µM
HCT-15 colon
  GI50: 7.51 µM
  TGI: 33.3 µM
HL-60(TB) leukemia
  GI50: 4.77 µM
  TGI: 16.3 µM
HOP-62 NSCLC
  GI50: 5.62 µM
  TGI: 13.5 µM
HOP-92 NSCLC
  GI50: 5.42 µM
  TGI: 14.6 µM
HS 578T breast
  GI50: 4.77 µM
  TGI: 15.2 µM
HT29 colon
  GI50: 4.46 µM
  TGI: 10.1 µM
IGROV1 ovarian
  GI50: 4.88 µM
  TGI: 21.2 µM
K-562 leukemia
  GI50: 7.41 µM
  TGI: > 34.5 µM
KM12 colon
  GI50: 6 µM
  TGI: 20.4 µM
LOX IMVI melanoma
  GI50: 4.17 µM
  TGI: 8.44 µM
M14 melanoma
  GI50: 5.55 µM
  TGI: 14.5 µM
MALME-3M melanoma
  GI50: 5.7 µM
  TGI: 12.1 µM
MCF7 breast
  GI50: 6.45 µM
  TGI: 29.9 µM
MDA-MB-231 breast
  GI50: 4.04 µM
  TGI: 8.87 µM
MDA-MB-435
  GI50: 5.55 µM
  TGI: 12.7 µM
MDA-MB-468 breast
  GI50: 3.46 µM
  TGI: 12.6 µM
MOLT-4 leukemia
  GI50: 4.46 µM
  TGI: 19.8 µM
NCI-H226 lung
  GI50: 4.32 µM
